According to US20020137929A1, “1 - (3-heterocyclylphenyl) isothiourea, -isourea, -guanidine and -amidine herbicidal agents” (Intellectual Property Department, BASF Aktiengesellschaft, priority 1998, published 2002):

Assays:
[1] = tested on: IPOHE (Morningglory, Ivyleaf); assay: Preemergence herbicidal evaluation; format: in vivo, Ipomoea hederacea; settings: rated 4-5 weeks after treatment
How it was run: (§1)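 Scores (0–9) reflect visual comparison with control plants for stand, vigor, malformation, size and chlorosis. Compound was applied to the soil after sowing, before emergence, as an aqueous acetone spray (about 0.0156–0.500 kg/ha), and cups were kept in a greenhouse for 4–5 weeks.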

[2] = tested on: IPOHE (Morningglory, Ivyleaf); assay: Postemergence herbicidal evaluation; format: in vivo, Ipomoea hederacea; settings: postemergence
How it was run: (§2)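 Visual 0-9 injury score (stand, vigor, malformation, size, chlorosis, appearance vs untreated) taken four to five weeks post-spray, averaged across repeat tests. Test plants about two weeks old; foliar spray of acetone/water (1:1) with 0.5% surfactant delivering ~0.0156-0.500 kg active/ha.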

[3] = tested on: ECHORC (Watergrass (Calif.)); assay: Postemergence weed control under flooded paddy conditions; format: in vivo, Echinochloa oryzoides; settings: postemergence weeds, 3-4 weeks after treatment
How it was run: (§3)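 With weeds 3 to 5 cm tall and rice at the 1.5 to 2.5 leaf stage, containers were flooded and water held 1.5 to 3 cm above soil. Compounds in 50/50 v/v aqueous/acetone went into the flood water at about 0.0313 to 0.500 kg/ha a.i. Effects were visually rated 0–9 against controls after three to four weeks in the greenhouse.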

CYPIR (Rice Flatsedge) = assay: Preemergence weed control under flooded paddy conditions; format: in vivo, Cyperus iria; settings: rated 3-4 weeks after treatment
How it was run: (§4)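 Seeds or propagules sown in top 0.5 cm of silt loam soil, flooded 1.5 to 3 cm above surface throughout. Compound in 50/50 v/v aqueous/acetone pipetted into flood water at about 0.0313 to 0.500 kg/ha. Visual 0-9 rating versus control after three to four weeks in greenhouse.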

ECHCG (Barnyardgrass) = assay: Preemergence herbicidal evaluation; format: in vivo, Echinochloa crus-galli; settings: rated 4-5 weeks after treatment
How it was run: as §1

SETVI (Foxtail, Green) [4] = assay: Postemergence herbicidal evaluation; format: in vivo, Setaria viridis; settings: postemergence
How it was run: as §2

ABUTH (Velvetleaf) = assay: Preemergence herbicidal evaluation; format: in vivo, Abutilon theophrasti; settings: rated 4-5 weeks after treatment
How it was run: as §1

[5] = tested on: ECHORC (Watergrass (Calif.)); assay: Preemergence weed control under flooded paddy conditions; format: in vivo, Echinochloa oryzoides; settings: rated 3-4 weeks after treatment
How it was run: as §4

[6] = tested on: SAGPY (Arrowhead (Pygmaea)); assay: Postemergence weed control under flooded paddy conditions; format: in vivo, Sagittaria pygmaea; settings: postemergence weeds, 3-4 weeks after treatment
How it was run: as §3

[7] = tested on: TRZAWR (Wheat, Winter, cv Riband); assay: Postemergence herbicidal evaluation; format: in vivo, Triticum aestivum; settings: postemergence
How it was run: as §2

ZEAMX (Corn, Field) = assay: Preemergence herbicidal evaluation; format: in vivo, Zea mays; settings: rated 4-5 weeks after treatment
How it was run: as §1

MOOVA (Monochoria) = assay: Preemergence weed control under flooded paddy conditions; format: in vivo, Monochoria vaginalis; settings: rated 3-4 weeks after treatment
How it was run: as §4

SETVI (Foxtail, Green) [8] = assay: Preemergence herbicidal evaluation; format: in vivo, Setaria viridis; settings: rated 4-5 weeks after treatment
How it was run: as §1

GALAP (Galium) = assay: Postemergence herbicidal evaluation; format: in vivo, Galium aparine; settings: postemergence
How it was run: as §2

## COC(=O)CN1C(=O)CSC1=Nc1cc(-n2c(=O)cc(C(F)(F)F)n(C)c2=O)c(F)cc1Cl [Compound 17, Methyl 2-{{2-chloro-5-[3,6-dihydro-3-methyl-2,6-dioxo-4-(trifluoromethyl)-1(2H)-pyrimidinyl]-4-fluorophenyl}imino}-4-oxo-3-thiazolidineacetate]
[1]; rate 0.0156 kg/ha
  IPOHE preemergence herbicidal rating: 0.5
[1]; rate 0.0313 kg/ha
  IPOHE preemergence herbicidal rating: 0.7
[1]; rate 0.0625 kg/ha
  IPOHE preemergence herbicidal rating: 4.0
[1]; rate 0.1250 kg/ha
  IPOHE preemergence herbicidal rating: 5.7
[1]; rate 0.2500 kg/ha
  IPOHE preemergence herbicidal rating: 9.0
[1]; rate 0.5000 kg/ha
  IPOHE preemergence herbicidal rating: 9.0
[2]; rate 0.0156 kg/ha
  IPOHE herbicidal rating: 7.0
[2]; rate 0.0313 kg/ha
  IPOHE herbicidal rating: 8.5
[2]; rate 0.0625 kg/ha
  IPOHE herbicidal rating: 9.0
[2]; rate 0.1250 kg/ha
  IPOHE herbicidal rating: 9.0
[3]; rate 0.0313 kg/ha
  Herbicidal rating ECHORC: 4.0
[3]; rate 0.0625 kg/ha
  Herbicidal rating ECHORC: 9.0
[3]; rate 0.1250 kg/ha
  Herbicidal rating ECHORC: 9.0
[3]; rate 0.2500 kg/ha
  Herbicidal rating ECHORC: 9.0
CYPIR (Rice Flatsedge); 0.0313 kg/ha
  Herbicidal rating CYPIR: 0.0
CYPIR (Rice Flatsedge); 0.0625 kg/ha
  Herbicidal rating CYPIR: 0.0
CYPIR (Rice Flatsedge); 0.1250 kg/ha
  Herbicidal rating CYPIR: 6.0
CYPIR (Rice Flatsedge); 0.2500 kg/ha
  Herbicidal rating CYPIR: 9.0
ECHCG (Barnyardgrass); rate 0.0156 kg/ha
  ECHCG preemergence herbicidal rating: 0.5
ECHCG (Barnyardgrass); rate 0.0313 kg/ha
  ECHCG preemergence herbicidal rating: 0.7
ECHCG (Barnyardgrass); rate 0.0625 kg/ha
  ECHCG preemergence herbicidal rating: 1.0
ECHCG (Barnyardgrass); rate 0.1250 kg/ha
  ECHCG preemergence herbicidal rating: 0.7
ECHCG (Barnyardgrass); rate 0.2500 kg/ha
  ECHCG preemergence herbicidal rating: 4.3
ECHCG (Barnyardgrass); rate 0.5000 kg/ha
  ECHCG preemergence herbicidal rating: 9.0
SETVI (Foxtail, Green) [4]; rate 0.0156 kg/ha
  SETVI herbicidal rating: 2.0
SETVI (Foxtail, Green) [4]; rate 0.0313 kg/ha
  SETVI herbicidal rating: 2.5
SETVI (Foxtail, Green) [4]; rate 0.0625 kg/ha
  SETVI herbicidal rating: 4.0
SETVI (Foxtail, Green) [4]; rate 0.1250 kg/ha
  SETVI herbicidal rating: 5.5
ABUTH (Velvetleaf); rate 0.0156 kg/ha
  ABUTH preemergence herbicidal rating: 0.0
ABUTH (Velvetleaf); rate 0.0313 kg/ha
  ABUTH preemergence herbicidal rating: 4.0
ABUTH (Velvetleaf); rate 0.0625 kg/ha
  ABUTH preemergence herbicidal rating: 9.0
ABUTH (Velvetleaf); rate 0.1250 kg/ha
  ABUTH preemergence herbicidal rating: 9.0
ABUTH (Velvetleaf); rate 0.2500 kg/ha
  ABUTH preemergence herbicidal rating: 9.0
ABUTH (Velvetleaf); rate 0.5000 kg/ha
  ABUTH preemergence herbicidal rating: 9.0
[5]; 0.0313 kg/ha
  Herbicidal rating ECHORC: 4.0
[5]; 0.0625 kg/ha
  Herbicidal rating ECHORC: 9.0
[5]; 0.1250 kg/ha
  Herbicidal rating ECHORC: 9.0
[5]; 0.2500 kg/ha
  Herbicidal rating ECHORC: 9.0
[6]; rate 0.0313 kg/ha
  Herbicidal rating SAGPY: 0.0
[6]; rate 0.0625 kg/ha
  Herbicidal rating SAGPY: 0.0
[6]; rate 0.1250 kg/ha
  Herbicidal rating SAGPY: 4.0
[6]; rate 0.2500 kg/ha
  Herbicidal rating SAGPY: 4.0
[7]; rate 0.0156 kg/ha
  TRZAWR herbicidal rating: 3.3
[7]; rate 0.0313 kg/ha
  TRZAWR herbicidal rating: 4.5
[7]; rate 0.0625 kg/ha
  TRZAWR herbicidal rating: 5.5
[7]; rate 0.1250 kg/ha
  TRZAWR herbicidal rating: 7.3
ZEAMX (Corn, Field); rate 0.0156 kg/ha
  ZEAMX preemergence herbicidal rating: 0.0
ZEAMX (Corn, Field); rate 0.0313 kg/ha
  ZEAMX preemergence herbicidal rating: 0.3
ZEAMX (Corn, Field); rate 0.0625 kg/ha
  ZEAMX preemergence herbicidal rating: 1.0
ZEAMX (Corn, Field); rate 0.1250 kg/ha
  ZEAMX preemergence herbicidal rating: 1.0
ZEAMX (Corn, Field); rate 0.2500 kg/ha
  ZEAMX preemergence herbicidal rating: 3.3
ZEAMX (Corn, Field); rate 0.5000 kg/ha
  ZEAMX preemergence herbicidal rating: 5.5
MOOVA (Monochoria); 0.0313 kg/ha
  Herbicidal rating MOOVA: 9.0
MOOVA (Monochoria); 0.0625 kg/ha
  Herbicidal rating MOOVA: 9.0
MOOVA (Monochoria); 0.1250 kg/ha
  Herbicidal rating MOOVA: 9.0
MOOVA (Monochoria); 0.2500 kg/ha
  Herbicidal rating MOOVA: 9.0
SETVI (Foxtail, Green) [8]; rate 0.0156 kg/ha
  SETVI preemergence herbicidal rating: 0.5
SETVI (Foxtail, Green) [8]; rate 0.0313 kg/ha
  SETVI preemergence herbicidal rating: 1.3
SETVI (Foxtail, Green) [8]; rate 0.0625 kg/ha
  SETVI preemergence herbicidal rating: 2.3
SETVI (Foxtail, Green) [8]; rate 0.1250 kg/ha
  SETVI preemergence herbicidal rating: 6.7
SETVI (Foxtail, Green) [8]; rate 0.2500 kg/ha
  SETVI preemergence herbicidal rating: 9.0
SETVI (Foxtail, Green) [8]; rate 0.5000 kg/ha
  SETVI preemergence herbicidal rating: 9.0
GALAP (Galium); rate 0.0156 kg/ha
  GALAP herbicidal rating: 1.5
GALAP (Galium); rate 0.0313 kg/ha
  GALAP herbicidal rating: 3.5
GALAP (Galium); rate 0.0625 kg/ha
  GALAP herbicidal rating: 5.5
GALAP (Galium); rate 0.1250 kg/ha
  GALAP herbicidal rating: 6.0
